# Source: patent publication US20060069132A1, “Azolecarboxamide herbicides” (priority 2004, published 2006)
# Like-named read-outs stand apart in the source and are kept apart here.
# What was measured:
# velvetleaf [1] = assay: Test A pre-/postemergence herbicide test; assay type: in vivo, Abutilon theophrasti; details: for pest or weed control at 500 g/ha / pest or weed control at 2000 g/ha: Abutilon theophrasti, 240 h
# Summary of the method: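 Visual injury rating on a 0–100 scale (0 no effect, 100 complete control) versus untreated controls, about ten days after treatment in greenhouse. Pre: directed soil spray onto seeded sandy loam. Post: spray to runoff on plants 2–10 cm tall at one- to two-leaf stage.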
# corn = assay: Test B pre-/postemergence herbicide test; assay type: in vivo, Zea mays
# Summary of the method: (§1)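 Seeds were planted and treated preemergence with compounds formulated in a non-phytotoxic solvent mixture containing surfactant, while plants at the 1- to 4-leaf stage (2 to 18 cm) received postemergence sprays. Flooded paddy plants were grown to the 2-leaf stage. After 13 to 15 days in a greenhouse, injury was visually rated 0–100 against untreated controls.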
# large crabgrass = assay: Test B pre-/postemergence herbicide test; assay type: in vivo, Digitaria sanguinalis; details: for pest or weed control at 125 g/ha / pest or weed control at 500 g/ha: Digitaria sanguinalis
# Summary of the method: as §1
# Surinam grass = assay: Test C pre-/postemergence herbicide test; assay type: in vivo, Urochloa decumbens
# Source text: (§2) Seeds of plant species selected from bermudagrass (Cynodon dactylon (L.) Pers.), Surinam grass (Urochloa decumbens (Staph) R. D. Webster, previously named Brachiaria decumbens Stapf), cocklebur (Xanthium strumarium L.), corn (Zea mays L.), large crabgrass (Digitaria sanguinalis (L.) Scop.), woolly cupgrass (Eriochloa villosa (Thunb.) Kunth), giant foxtail (Setaria faberi Herrm.), goosegrass (Eleusine indica (L.) Gaertn.), johnsongrass (Sorghum halepense (L.) Pers.), kochia (Kochia scoparia (L.) Schrad.), lambsquarters (Chenopodium album L.), morningglory (Ipomoea coccinea L.), eastern black nightshade (Solanum ptycanthum Dunal), yellow nutsedge (Cyperus esculentus L.), pigweed (Amaranthus retroflexus L.), common ragweed (Ambrosia elatior L.), soybean (Glycine max (L.) Merr.), common (oilseed) sunflower (Helianthus annuus L.) and velvetleaf (Abutilon theophrasti Medik.) were planted and treated preemergence with test chemicals formulated in a non-phytotoxic solvent mixture which included a surfactant.
# (§3) At the same time, plants selected from these crop and weed species and also winter barley (Hordeum vulgare L.), blackgrass (Alopecurus myosuroides Huds.), canarygrass (Phalaris minor Retz.), chickweed (Stellaria media (L.) Vill.), downy bromegrass (Bromus tectorum L.), green foxtail (Setaria viridis (L.) Beauv.), Italian ryegrass (Lolium multiflorum Lam.), wheat (Triticum aestivum L.), wild oat (Avenafatua L.) and windgrass (Apera spica-venti (L.) Beauv.) were treated with postemergence applications of some of the test chemicals formulated in the same manner. Plants ranged in height from 2 to 18 cm (1- to 4-leaf stage) for postemergence treatments. Plant species in the flooded paddy test consisted of rice (Oryza sativa), smallflower umbrella sedge (Cyperus difformis L.), ducksalad (Heteranthera limosa (Sw.) Willd.) and barnyardgrass (Echinochloa crus-galli (L.) Beauv.) grown to the 2-leaf stage for testing. Treated plants and controls were maintained in a greenhouse for 12 to 14 days, after which time all species were compared to controls and visually evaluated. Plant response ratings, summarized in Table C, are based on a scale of 0 to 100 where 0 is no effect and 100 is complete control. A dash (-) response means no test result.
# cocklebur = assay: Test C pre-/postemergence herbicide test; assay type: in vivo, Xanthium strumarium
# Source text: as §2, §3
# pigweed = assay: Test C pre-/postemergence herbicide test; assay type: in vivo, Amaranthus retroflexus
# Source text: as §2, §3
# soybean = assay: Test C pre-/postemergence herbicide test; assay type: in vivo, Glycine max
# Source text: as §2, §3
# velvetleaf [2] = assay: Test C pre-/postemergence herbicide test; assay type: in vivo, Abutilon theophrasti
# Source text: as §2, §3
# [3] = 125 g ai/ha, 0 = no effect, 100 = complete control, preemergence
# [4] = 500 g ai/ha, visual rating, 0 = no effect, 100 = complete control, preemergence
# [5] = postemergence, 125 g ai/ha, visual rating, scale 0 (no effect) to 100 (complete control)
# [6] = postemergence, 500 g ai/ha, scale 0 to 100, 0 is no effect, 100 is complete control
# [7] = Postemergence, 500 g ai/ha, scale 0 to 100
# [8] = Postemergence, 250 g ai/ha, scale 0 to 100, 0 no effect, 100 complete control
# [9] = postemergence, 125 g ai/ha, scale 0 to 100
# [10] = postemergence, 62 g ai/ha, scale 0 to 100
# [11] = Postemergence, 500 g ai/ha, visual rating after 13 to 15 days, scale 0 (no effect) to 100 (complete control)
# [12] = Preemergence, 500 g ai/ha, scale 0 to 100
# [13] = preemergence, 125 g ai/ha, 0 to 100 scale, 0 is no effect, 100 is complete control
SMILES,Corn plant response rating (corn; [5]),"Crabgrass, Large plant response rating (large crabgrass; [5])","Plant response rating, Surinam Grass (Surinam grass; [8])","Plant response rating, Surinam Grass (Surinam grass; [9])","Plant response rating, Surinam Grass (Surinam grass; [10])","Plant response rating, Cocklebur (cocklebur; [8])","Plant response rating, Cocklebur (cocklebur; [9])","Plant response rating, Cocklebur (cocklebur; [10])","Plant response rating, Pigweed (pigweed; [8])","Plant response rating, Pigweed (pigweed; [9])","Plant response rating, Pigweed (pigweed; [10])","Plant response rating, Soybean (soybean; [8])","Plant response rating, Soybean (soybean; [9])","Plant response rating, Soybean (soybean; [10])","Plant response rating, Velvetleaf (velvetleaf [2]; [8])","Plant response rating, Velvetleaf (velvetleaf [2]; [9])","Plant response rating, Velvetleaf (velvetleaf [2]; [10])",further results
CCn1nc(C(C)(C)C)cc1C(=O)Nc1cccc(OC(F)(F)F)c1 [Compound 272],30,10,35,10,5,60,60,15,100,100,100,85,80,60,100,95,85,"Velvetleaf plant response rating (velvetleaf [1]; Postemergence, 500 g ai/ha, 0 to 100 scale, 0 no effect, 100 complete control): 100; Plant response rating, Velvetleaf (velvetleaf [1]; Postemergence, 2000 g ai/ha, 0 to 100 scale, 0 no effect, 100 complete control): 100; Velvetleaf plant response rating (velvetleaf [1]; Preemergence, 2000 g ai/ha, visual rating, 0 to 100 scale (0 no effect, 100 complete control)): 60; Velvetleaf plant response rating (velvetleaf [1]; preemergence, 500 g ai/ha, visual injury, 0 to 100 scale (0 no effect, 100 complete control)): 15; Corn plant response rating (0 to 100 scale) (corn; [3]): 0; Plant response rating, Corn (corn; [4]): 10; Corn plant response rating (corn; [6]): 40; Crabgrass, Large plant response rating (0 to 100 scale) (large crabgrass; [3]): 80; Plant response rating, Crabgrass, Large (large crabgrass; [4]): 100; Crabgrass, Large plant response rating (large crabgrass; [6]): 70; Surinam Grass plant response rating (Surinam grass; [7]): 60; Cocklebur plant response rating (cocklebur; [7]): 95; Pigweed plant response rating (pigweed; [7]): 100; Soybean plant response rating (soybean; [7]): 95; Velvetleaf plant response rating (velvetleaf [2]; [7]): 100"
"CCn1nc(C(C)(C)C)cc1C(=O)Nc1cc(C(=O)OC)ccn1 [Compound 151, methyl 2-[[[3-(1,1-dimethylethyl)-1-ethyl-1H-pyrazol-5-yl]carbonyl]amino]-4-pyridinecarboxylate]",–,–,–,–,–,–,–,–,–,–,–,–,–,–,–,–,–,"pest or weed control at 500 g/ha (velvetleaf [1]; post-emergence, Postemergence, 500 g ai/ha, 0 to 100 scale, 0 no effect, 100 complete control, read-out: Velvetleaf plant response rating): 35%; pest or weed control at 2000 g/ha (velvetleaf [1]; post-emergence, Postemergence, 2000 g ai/ha, 0 to 100 scale, 0 no effect, 100 complete control, read-out: Plant response rating, Velvetleaf): 60%; pest or weed control at 2000 g/ha (velvetleaf [1]; pre-emergence, Preemergence, 2000 g ai/ha, visual rating, 0 to 100 scale (0 no effect, 100 complete control), read-out: Velvetleaf plant response rating): 10%; pest or weed control at 500 g/ha (velvetleaf [1]; pre-emergence, preemergence, 500 g ai/ha, visual injury, 0 to 100 scale (0 no effect, 100 complete control), read-out: Velvetleaf plant response rating): 0%; plant injury at 125 g/ha (corn; Zea mays, post-emergence, postemergence, 125 g ai/ha, visual rating, scale 0 (no effect) to 100 (complete control), read-out: Corn plant response rating): 10%; plant injury at 500 g/ha (corn; Zea mays, post-emergence, postemergence, 500 g ai/ha, visual rating, scale 0 (no effect) to 100 (complete control), read-out: Corn plant response rating): 10%; Corn plant response rating (crop injury, 0 = no effect, 100 = complete kill) at 500 g/ha (corn; Zea mays, pre-emergence, 500 g ai/ha, visual rating 0-100, 0 no effect, 100 complete control): 0%; Corn plant response rating (crop injury, 0 = no effect, 100 = complete kill) at 125 g/ha (corn; Zea mays, pre-emergence, preemergence, 125 g ai/ha, 0 to 100 scale, 0 is no effect, 100 is complete control): 0%; pest or weed control at 125 g/ha (large crabgrass; post-emergence, postemergence, 125 g ai/ha, visual rating, scale 0 (no effect) to 100 (complete control), read-out: Crabgrass, Large plant response rating): 0%; pest or weed control at 500 g/ha (large crabgrass; post-emergence, postemergence, 500 g ai/ha, visual rating, scale 0 (no effect) to 100 (complete control), read-out: Crabgrass, Large plant response rating): 0%; pest or weed control at 500 g/ha (large crabgrass; pre-emergence, 500 g ai/ha, visual rating 0-100, 0 no effect, 100 complete control, read-out: Plant response rating, Crabgrass, Large): 10%; pest or weed control at 125 g/ha (large crabgrass; pre-emergence, preemergence, 125 g ai/ha, 0 to 100 scale, 0 is no effect, 100 is complete control, read-out: Plant response rating, Crabgrass, Large): 0%"
CCn1nc(C(C)(C)C)cc1C(=O)Nc1cccc(C(=O)OC)c1 [Compound 81],10,10,80,50,50,60,55,55,40,10,5,30,30,10,60,55,55,"Plant response rating, Corn (corn; [11]): 30; Corn plant response rating (corn; [12]): 0; Plant response rating, Corn (corn; [13]): 0; Plant response rating, Crabgrass, Large (large crabgrass; [11]): 20; Crabgrass, Large plant response rating (large crabgrass; [12]): 10; Plant response rating, Crabgrass, Large (large crabgrass; [13]): 0; Plant response rating, Cocklebur (cocklebur; postemergence, 31 g ai/ha, scale 0 to 100): 50"
